Like-named read-outs stand apart in the source and are kept apart here.
Experiments:
Type in all cases: biochemical
[1] = target: CDK1/CCNB1 (Homo sapiens, UniProt P06493); experiment: CDK1 homogeneous time-resolved fluorescence (HTRF) kinase assay; settings: CDK1/CCNB
Outline: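 Compounds, titrated 11 points in half-log steps typically from 10 μM, were incubated with enzyme for 20 min before ATP (1 mM) and ULight-labelled eIF4E-binding protein 1 peptide (50 nM) started a 60-min reaction at 23 °C. Phosphopeptide was detected by europium-antibody TR-FRET and IC50 values were derived.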

[2] = target: CDK4/CCND3 (Homo sapiens, UniProt P11802); experiment: CDK4 homogeneous time-resolved fluorescence (HTRF) kinase assay; settings: CDK4/CCND
Outline: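 IC50s derive from Lance 665 nm or 665/615 nm signals in 11-point, half-log dose series (top 10 μM, 1% DMSO). The enzyme, 1.5 nM CDK4/CCND3, phosphorylates 50 nM ULight-4E-BP1 peptide with 1 mM ATP over 60 min at 23 °C.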

[3] = target: CDK2/CCNE1 (Homo sapiens, UniProt P24941); experiment: CDK2 homogeneous time-resolved fluorescence (HTRF) kinase assay; settings: CDK2/CCNE
Outline: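 An HTRF format measures CDK2/CCNE1 (3 nM) phosphorylating a 4E-BP1 Thr37/46 peptide at high (1 mM) ATP. Reactions run one hour at 23 °C, then EDTA-quenched and probed with Eu-labelled phospho-specific antibody.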

[4] = target: CDK6/CCND1 (Homo sapiens, UniProt Q00534); experiment: CDK6 homogeneous time-resolved fluorescence (HTRF) kinase assay; settings: CDK6/CCND
Outline: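 Assay conditions: HEPES buffer containing 10 mM MgCl2, 1 mM EGTA, 2 mM DTT, 0.01% Tween 20; 1 nM CDK6/CCND1, 50 nM peptide substrate, 1 mM ATP. Detection after 60 min reaction used 2 nM europium antibody with 340 nm excitation. Potency fitted from half-log series, 11 points.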

[5] = >250 nM, read-out: CDK1/CCNB IC50 >250 nM
[6] = >250 nM, read-out: CDK4/CCND IC50, >250 nM
[7] = 25-250 nM, read-out: CDK2/CCNE IC50, 25-250 nM
[8] = >250 nM, 1 mM ATP, read-out: CDK6/CCND IC50, >250 nM
[9] = 25-250 nM, read-out: CDK4/CCND IC50, 25-250 nM
[10] = <25 nM, read-out: CDK2/CCNE IC50, <25 nM
[11] = 25-250 nM, read-out: CDK1/CCNB IC50, 25-250 nM
[12] = 25-250 nM, 1 mM ATP, read-out: CDK6/CCND IC50, 25-250 nM
[13] = x = IC50 25-250 nM, read-out: CDK1/CCNB IC50 (25-250 nM)
[14] = x = IC50 25-250 nM, read-out: CDK4/CCND IC50 (25-250 nM)
[15] = x = IC50 <25 nM, read-out: CDK2/CCNE IC50 (<25 nM)
[16] = x = IC50 >250 nM, read-out: CDK4/CCND IC50 (>250 nM column)
[17] = x = IC50 >250 nM, read-out: CDK6/CCND IC50 (>250 nM column)

Sequence of CDK4/CCND3 (P11802 whole entry): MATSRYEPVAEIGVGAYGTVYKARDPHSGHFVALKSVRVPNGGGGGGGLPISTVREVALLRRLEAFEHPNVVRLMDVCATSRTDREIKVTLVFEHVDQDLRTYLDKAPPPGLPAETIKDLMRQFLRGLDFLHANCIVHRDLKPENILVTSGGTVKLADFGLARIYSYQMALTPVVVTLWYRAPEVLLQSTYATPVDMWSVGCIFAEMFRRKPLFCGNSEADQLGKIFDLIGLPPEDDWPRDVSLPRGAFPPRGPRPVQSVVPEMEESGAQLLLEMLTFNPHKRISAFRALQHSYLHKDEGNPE
Sequence of CDK4/CCND3 (P30281 whole entry partner): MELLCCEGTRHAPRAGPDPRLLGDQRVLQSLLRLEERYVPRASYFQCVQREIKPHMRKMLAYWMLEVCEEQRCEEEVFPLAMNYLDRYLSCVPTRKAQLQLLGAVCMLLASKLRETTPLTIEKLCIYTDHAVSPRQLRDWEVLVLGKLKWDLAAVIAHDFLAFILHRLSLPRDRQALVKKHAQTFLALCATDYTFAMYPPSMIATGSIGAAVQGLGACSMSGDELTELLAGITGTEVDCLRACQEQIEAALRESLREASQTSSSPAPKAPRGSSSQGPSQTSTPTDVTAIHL
Sequence of CDK6/CCND1 (Q00534 whole entry): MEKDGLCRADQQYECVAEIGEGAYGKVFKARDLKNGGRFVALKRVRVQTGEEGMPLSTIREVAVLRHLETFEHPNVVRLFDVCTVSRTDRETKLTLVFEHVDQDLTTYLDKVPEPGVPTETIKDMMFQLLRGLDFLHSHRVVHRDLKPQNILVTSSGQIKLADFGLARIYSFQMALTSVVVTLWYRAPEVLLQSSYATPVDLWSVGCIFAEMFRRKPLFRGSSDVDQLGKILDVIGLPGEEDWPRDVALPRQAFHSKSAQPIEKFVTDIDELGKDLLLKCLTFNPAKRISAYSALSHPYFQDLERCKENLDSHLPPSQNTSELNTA
Sequence of CDK6/CCND1 (P24385 whole entry partner): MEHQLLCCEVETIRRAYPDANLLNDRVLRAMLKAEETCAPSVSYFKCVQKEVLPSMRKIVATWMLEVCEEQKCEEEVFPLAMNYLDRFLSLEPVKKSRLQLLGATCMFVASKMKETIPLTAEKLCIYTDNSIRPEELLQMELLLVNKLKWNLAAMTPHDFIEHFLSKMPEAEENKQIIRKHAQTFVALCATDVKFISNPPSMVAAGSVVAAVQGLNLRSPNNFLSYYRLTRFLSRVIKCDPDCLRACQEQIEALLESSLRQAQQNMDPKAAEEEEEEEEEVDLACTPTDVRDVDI
Sequence of CDK1/CCNB1 (P06493 whole entry): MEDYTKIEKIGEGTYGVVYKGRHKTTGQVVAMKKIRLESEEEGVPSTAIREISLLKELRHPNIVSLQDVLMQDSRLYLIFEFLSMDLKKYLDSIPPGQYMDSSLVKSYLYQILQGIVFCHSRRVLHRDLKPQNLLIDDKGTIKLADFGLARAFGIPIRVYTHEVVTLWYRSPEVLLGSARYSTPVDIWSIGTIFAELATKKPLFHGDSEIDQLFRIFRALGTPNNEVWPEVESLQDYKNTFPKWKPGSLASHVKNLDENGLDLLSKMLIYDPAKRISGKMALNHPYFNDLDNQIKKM
Sequence of CDK1/CCNB1 (P14635 whole entry partner): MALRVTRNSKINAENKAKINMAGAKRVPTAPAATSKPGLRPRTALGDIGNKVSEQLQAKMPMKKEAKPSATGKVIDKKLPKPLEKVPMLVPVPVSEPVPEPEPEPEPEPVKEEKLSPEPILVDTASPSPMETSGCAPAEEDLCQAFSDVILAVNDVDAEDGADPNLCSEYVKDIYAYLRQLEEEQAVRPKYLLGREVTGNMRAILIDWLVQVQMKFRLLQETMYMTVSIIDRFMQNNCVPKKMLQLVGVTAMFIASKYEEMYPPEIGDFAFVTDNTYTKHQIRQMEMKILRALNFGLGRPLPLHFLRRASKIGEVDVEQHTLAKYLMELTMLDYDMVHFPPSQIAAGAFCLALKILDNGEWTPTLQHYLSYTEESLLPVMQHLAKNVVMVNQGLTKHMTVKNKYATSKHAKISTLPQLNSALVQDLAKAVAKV

IC50 [1, 5] [nM]	IC50 [4, 8] [nM]	IC50 [2, 9] [nM]	IC50 [3, 10] [nM]	IC50 [1, 13] [nM]	IC50 [3, 15] [nM]	IC50 [4, 17] [nM]	SMILES	other results
> 250	> 250						Cc1c(-c2nccc3cnc(NC4CCN(C(=O)c5cccnc5)C4)cc23)ccc2c1cnn2CC(C)(C)O (racemic) [Ex 904, (3-((5-(1-(2-hydroxy-2-methylpropyl)-4-methyl-1H-indazol-5-yl)-2,6-naphthyridin-3-yl)amino)pyrrolidin-1-yl)(pyridin-3-yl)methanone]	IC50 [2, 6]: > 250 nM; IC50 [3, 7]: 25 to 250 nM
> 250	> 250						Cc1c(-c2nccc3cnc(NC4CCCN(S(C)(=O)=O)C4)cc23)ccc2c1cnn2CC(C)(C)O (racemic) [Ex 918, 2-methyl-1-(4-methyl-5-(7-((1-(methylsulfonyl)piperidin-3-yl)amino)-2,6-naphthyridin-1-yl)-1H-indazol-1-yl)propan-2-ol]	IC50 [2, 6]: > 250 nM; IC50 [3, 7]: 25 to 250 nM
				25 to 250	< 25		CC1(O)C(=O)Nc2cc(C#Cc3nccc4cnc(Nc5ccc(S(C)(=O)=O)cc5)cc34)ccc21 (racemic) [Example 362, 3-hydroxy-3-methyl-6-((7-((4-(methylsulfonyl)phenyl)amino)-2,6-naphthyridin-1-yl)ethynyl)indolin-2-one]	IC50 [2, 14]: 25 to 250 nM; IC50 ([4]; x = IC50 25-250 nM, read-out: CDK6/CCND IC50 (25-250 nM)): 25 to 250 nM

Continued, compound first:

SMILES	IC50 [1, 5] [nM]	IC50 [4, 8] [nM]	IC50 [2, 9] [nM]	IC50 [3, 10] [nM]	IC50 [1, 13] [nM]	IC50 [3, 15] [nM]	IC50 [4, 17] [nM]	other results
CS(=O)(=O)c1ccc(Nc2cc3c(C#CC45CCC(Cl)(CC4)CC5)nccc3cn2)cc1 (racemic) [Ex 944, 5-((4-chlorobicyclo[2.2.2]octan-1-yl)ethynyl)-N-(4-(methylsulfonyl)phenyl)-2,6-naphthyridin-3-amine]	> 250	> 250	25 to 250	< 25				
CS(=O)(=O)c1ccc(Nc2cc3c(C#CC45CC(C(N)=O)(C4)C5)nccc3cn2)cc1 (racemic) [Ex 945, 3-((7-((4-(methylsulfonyl)phenyl)amino)-2,6-naphthyridin-1-yl)ethynyl)bicyclo[1.1.1]pentane-1-carboxamide]			25 to 250	< 25				IC50 [1, 11]: 25 to 250 nM; IC50 [4, 12]: 25 to 250 nM
CS(=O)(=O)c1ccc(Nc2cc3c(C#CC45CCC(C#N)(CC4)CC5)nccc3cn2)cc1 (racemic) [Ex 946, 4-((7-((4-(methylsulfonyl)phenyl)amino)-2,6-naphthyridin-1-yl)ethynyl)bicyclo[2.2.2]octane-1-carbonitrile]			25 to 250	< 25				IC50 [1, 11]: 25 to 250 nM; IC50 [4, 12]: 25 to 250 nM
CCC1(C)C(=O)Nc2cc(C#Cc3nccc4cnc(Nc5ccc(S(C)(=O)=O)cc5)cc34)ccc21 (racemic) [Example 390, 3-ethyl-3-methyl-6-((7-((4-(methylsulfonyl)phenyl)amino)-2,6-naphthyridin-1-yl)ethynyl)indolin-2-one]					25 to 250	< 25	> 250	IC50 [2, 16]: > 250 nM
CC1(CO)C(=O)Nc2cc(C#Cc3nccc4cnc(Nc5ccc(S(C)(=O)=O)cc5)cc34)ccc21 (racemic) [Example 391, 3-(hydroxymethyl)-3-methyl-6-((7-((4-(methylsulfonyl)phenyl)amino)-2,6-naphthyridin-1-yl)ethynyl)indolin-2-one]					25 to 250	< 25	> 250	IC50 [2, 14]: 25 to 250 nM
CC(C)S(=N)(=O)c1ccc(Nc2cc3c(C#Cc4ccc(=O)[nH]n4)nccc3cn2)cc1 (racemic) [Example 431, 6-((7-((4-(propan-2-ylsulfonimidoyl)phenyl)amino)-2,6-naphthyridin-1-yl)ethynyl)pyridazin-3(2H)-one]						< 25	> 250	IC50 ([1]; x = IC50 >250 nM, read-out: CDK1/CCNB IC50 (>250 nM column)): > 250 nM; IC50 [2, 16]: > 250 nM

Source: US20260325533A1, “CDK INHIBITOR COMPOUNDS” (ALEKSIA THERAPEUTICS, INC., priority 2023, published 2026)
